4 compounds from PMC9323733, “Efficacy of Vafidemstat in Experimental Autoimmune Encephalomyelitis Highlights the KDM1A/RCOR1/HDAC Epigenetic Axis in Multiple Sclerosis” (Pharmaceutics, 2022) can be followed below.

Bounds are passed on as bounds.

One assay concerns the target T1, recombinant HDAC2 (Homo sapiens, UniProt Q92769).
T1 construct: purchased BPS Bioscience 50002
Description: HDAC2 fluorimetric biochemical assay. As for the experimental part:
HDAC2 activity was determined using a fluorimetric assay at BPS Bioscience (San Diego, CA, USA). Compounds were dissolved in DMSO (Sigma), and serial dilutions were further diluted in HDAC assay buffer (BPS). These working solutions were incubated in duplicate at room temperature for 3 h in a mixture containing HDAC assay buffer, BSA (Fisher Scientific), and recombinant HDAC2 (BPS). The enzymatic reactions were initiated by the addition of a fluorogenic, acetylated peptide substrate (BPS) and proceeded for 30 min at 37 °C. Then, HDAC assay developer (BPS) was added, and after further incubation at room temperature, fluorescence intensity was measured at an excitation of 360 nm and an emission of 460 nm using a Tecan Infinite M1000 microplate reader. Trichostatin A (TSA, Selleckchem, Houston, TX, USA) was used as a reference inhibitor.
For the biochemical assays, the fluorescence signal relative to the background (assay mixture in the absence of the enzyme) was subtracted from each fluorescent intensity data. Activity in the presence of compound was expressed as a percentage of fluorescence intensity in the absence of the compound.

The test system of a further assay is SH-SY5Y cells. Description: Human H3 acetylation assay (Western blot), cellular HDAC activity. The format is cell-based. Particulars: 1 and 0.1 µM, 2 and 6 h. How it is done: Human H3 acetylation assays: for the determination of global and K9-specific acetylation levels, 500,000 SH-SY5Y cells were seeded in 6-well plates in DMEM/F12 1:1 (Sigma), supplemented with 2 mM glutamine (LabClinics) and 10% FBS (Sigma) and incubated at 37 °C and 5% CO2 in a humid atmosphere. […] After 2 and 6 h of treatment, cells were harvested and centrifuged at 250× g for 4 min at room temperature and cell pellets used for total histone extraction with EpiQuik Total Histone Extraction Kit (Epigentek, Farmingdale, NY, USA) following manufacturer’s instructions. 1 µg of histone extracts were run in MOPS buffer in 12% PAGE (Life Technologies, Carlsbad, CA, USA) and transferred with the iBlot system to nitrocellulose membranes. Transferred blots were stained with the Ponceau S solution (Sigma) and scanned with an Epson Perfection V600 Photo Scanner. Membranes were blocked in blocking buffer (5% skimmed milk in PBS-Tween 0.1%) for 1 h at room temperature, and after blocking blots were incubated with rabbit polyclonal anti-H3K9Ac (1:2000 dilution, Abcam, Cambridge, UK) and rabbit polyclonal anti-H3ac (K9 + K14 + K18 + K23 + K27) (1:2000 dilution, Abcam) overnight at 4 °C in ablocking buffer. […]
On the technique in general: In western blotting, separated proteins are transferred to a membrane and probed.

In the next assay the target is T2, human S1P1 receptor (Homo sapiens, UniProt P21453).
T2 construct: host or cells: CHO cells
Description: CellKey impedance assay in CHO cells, agonistic and antagonistic effect. The format is cell-based. As for the experimental part:
Cell on impedance modulation, using the CellKey (Cellular Dielectric Spectroscopy) detection method (CellKey 96, MDS Sciex, Concord, ON, Canada) at Eurofins Pharma Discovery Services (Celle-Lévescault, France). CHO cells were seeded onto a 96-well plate at 15.104 cells/well in HBSS buffer (Invitrogen), 20 mM HEPES (Invitrogen), 10% FCS (Invitrogen), and 0.1% BSA (Sigma), allowed to equilibrate for 60 min at 28 °C. DMSO solutions of compounds were diluted in HBSS and 0.1% BSA. Plates were placed onto the system, and measurements were made at a temperature of 28 °C. To measure the agonistic effect, compounds and controls in duplicate were added simultaneously to all of the wells using an integrated fluidics system. Impedance measurements were monitored for 10 min after ligand addition. […] To measure the antagonistic effect, compounds and controls in duplicate were pre-incubated for 15 min before the addition of the reference agonist S1P at 0.01 µM (EC80). Impedance measurements were monitored for 10 min.
Evaluation of the agonistic (a) and antagonist (b) effect of the compounds on the human S1P1 receptor. […] Data are expressed as percentage of control (no compound) activity, n = 2. TSA was used as a control; (d) Cellular HDAC activity assay. […] SAHA was used as a control. Ponceau S staining was used as loading control. Veh: Vehicle. […] TSA: Trichostatin A. SAHA: suberoylanilide hydroxamic acid.

The target in the next assay is KDM1A (Homo sapiens, UniProt O60341). Description: In vitro potency, KDM1A inhibition. The assay is classed as biochemical.
The test system of assay [1] is C57BL/6 mice with chronic EAE. Description: Chronic EAE induced by MOG35–55, clinical score. The assay is classed as in vivo, mouse. As for the experimental part: Mice also received i.p. injections of 200 ng of pertussis toxin on days 0 and 2 [32]. Immunized mice were randomly distributed in different groups. […] MPTP is a prodrug which is converted to the neurotoxin 1-methyl-4-phenylpyridinium (MPP+) by MAO-B in vivo.
Compounds were administered once daily for five consecutive days in two cycles, from day 12 to 16 and from day 19 to 23 post-immunization. […] HPβCD was included to facilitate dissolution. Mice were scored daily for signs of EAE according to the following clinical scoring system: 0, no clinical signs; 0.5, partial loss of tail tonicity; 1, complete loss of tail tonicity; 2, flaccid tail and abnormal gait; 3, complete hind leg paralysis; 4, hind leg paralysis with hind body paresis; 5, hind and foreleg paralysis; and 6, death. Intermediate phenotypes were scored as a half integer. Animals were sacrificed when they kept a score of 5 more than 24 h. Investigators which administered the compounds and scored the animals were blinded to the treatments.

T2 sequence (P21453 whole entry): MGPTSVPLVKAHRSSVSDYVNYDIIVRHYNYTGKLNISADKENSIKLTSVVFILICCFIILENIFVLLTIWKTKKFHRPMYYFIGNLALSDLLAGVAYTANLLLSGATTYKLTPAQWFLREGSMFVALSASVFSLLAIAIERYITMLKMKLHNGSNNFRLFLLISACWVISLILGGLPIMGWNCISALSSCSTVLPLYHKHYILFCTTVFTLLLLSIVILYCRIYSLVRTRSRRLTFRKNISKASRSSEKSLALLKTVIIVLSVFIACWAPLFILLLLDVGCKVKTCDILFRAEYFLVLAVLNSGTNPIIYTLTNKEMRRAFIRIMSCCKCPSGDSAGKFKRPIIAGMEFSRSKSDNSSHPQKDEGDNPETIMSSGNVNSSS
T1 sequence (Q92769 whole entry): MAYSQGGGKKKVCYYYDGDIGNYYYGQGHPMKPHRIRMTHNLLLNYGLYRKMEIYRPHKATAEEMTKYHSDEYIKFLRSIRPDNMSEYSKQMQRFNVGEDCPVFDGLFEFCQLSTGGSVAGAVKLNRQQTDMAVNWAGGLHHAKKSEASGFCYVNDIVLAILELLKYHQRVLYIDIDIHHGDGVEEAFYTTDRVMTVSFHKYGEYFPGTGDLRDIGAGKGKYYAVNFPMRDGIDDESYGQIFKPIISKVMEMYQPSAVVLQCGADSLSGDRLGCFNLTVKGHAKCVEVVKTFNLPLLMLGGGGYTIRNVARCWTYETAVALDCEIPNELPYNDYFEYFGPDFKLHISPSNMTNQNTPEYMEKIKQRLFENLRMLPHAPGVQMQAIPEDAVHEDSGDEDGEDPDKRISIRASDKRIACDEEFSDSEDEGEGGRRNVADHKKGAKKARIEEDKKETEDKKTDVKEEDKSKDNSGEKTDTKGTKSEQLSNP

`CCCCCCCCc1ccc(CC[C@](N)(CO)COP(=O)(O)O)cc1` [FTY720-P, Fingolimod Phosphate]: at recombinant HDAC2, the “impact on recombinant HDAC2 activity” value is “unable to confirm the previous studies reporting that FTY720 or FTY720-P had any significant impact”. Also, the “impact on cellular HDAC activity (acetylated H3 or H3K9 levels)” value in the assay with SH-SY5Y cells is “unable to confirm the previous studies reporting that FTY720 or FTY720-P had any significant impact”.

In general, EC50 refers to the concentration giving half of the maximal effect. Consider `CCCCCCCCCCCCC/C=C/[C@@H](O)[C@@H](N)COP(=O)(O)O` [S1P], for which the “EC80, reference agonist” value on human S1P1 receptor (concentration used in antagonist mode) is 10 nM. At human S1P1 receptor (impedance, agonistic effect, read-out: EC50, reference agonist), the EC50 came to 1 nM.

The IC50 is the concentration that gives 50% inhibition. `C#CCN[C@@H]1CCc2ccccc21` [rasagiline, reference compound] showed an IC50 at KDM1A greater than 100000 nM. In assay [1] (EAE experiment 2), the “mice with no or only mild clinical signs at the end of the study” value came out at 44%. Besides, in assay [1] (EAE experiment 2 (mild), p.o. ORY-2001 0.05, 0.5, 1 mg/kg, ORY-LSD1 90, 180 µg/kg, rasagiline 3 mg/kg), the “effect on clinical course / disease severity” value is on record as “showed no overall protective effect”. The “animals with severe signs (maximum clinical score 3.5–6)” value in assay [1] (EAE experiment 2, highest dose tested) was 33%. In addition, the “onset of clinical signs” value in assay [1] (EAE experiment 2, rasagiline 3 mg/kg) was “slight delay of the onset of the clinical signs”.

As for `CCCCCCCCc1cccc(NC(=O)[C@H](N)COP(=O)(O)O)c1` [VPC23019], the IC50 on human S1P1 receptor (impedance, vs S1P at 0.01 µM, read-out: IC50, reference antagonist) stood at 27 nM.
